Measured values from BindingDB's records for doi:10.1074/jbc.M113.476473 (Uppsala University, 2013).

Legend:
Pantothenate kinase [1] = target: T1, Pantothenate kinase (Mycobacterium tuberculosis (strain ATCC 25618 / H37Rv), UniProt P9WPA7); test: Biochemical Assay (ATP at 50x Km)
T1 sequence (P9WPA7 whole entry): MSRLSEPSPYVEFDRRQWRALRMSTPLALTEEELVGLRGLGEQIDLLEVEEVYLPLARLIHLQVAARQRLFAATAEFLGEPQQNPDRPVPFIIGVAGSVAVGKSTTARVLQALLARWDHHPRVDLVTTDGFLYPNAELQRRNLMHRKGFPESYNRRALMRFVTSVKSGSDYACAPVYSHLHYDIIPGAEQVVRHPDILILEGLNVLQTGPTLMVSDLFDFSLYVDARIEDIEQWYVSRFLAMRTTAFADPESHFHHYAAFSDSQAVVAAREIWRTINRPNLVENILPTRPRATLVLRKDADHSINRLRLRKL
Procedure: Briefly, MtPanK activity was measured in a pyruvate kinaselactate dehydrogenase-coupled assay where the reaction rate was determined by spectrophotometric measurement of NADH consumption. A second set of IC50 measurements were performed with the ATP concentration at 50× Km, to determine the effect of cofactor competition.

Pantothenate kinase [2] = target: T1, Pantothenate kinase; test: Biochemical Assay (ATP at Km)
Procedure: Briefly, MtPanK activity was measured in a pyruvate kinaselactate dehydrogenase-coupled assay where the reaction rate was determined by spectrophotometric measurement of NADH consumption. IC50 measurements were performed with a suitable concentration range of inhibitory compound, while keeping the concentration of pantothenate and ATP at 122 and 395 µM, respectively, which is their respective Km.

Compound | IC50 (Pantothenate kinase [1]) [nM] | IC50 (Pantothenate kinase [2]) [nM]
N#Cc1ccc(-c2ccc(COC(=O)O)cc2CN2CCN(c3ccccn3)CC2)cc1 [Biaryl 2a] | 130 | 120
N#Cc1ccc(-c2ccc(OCC(N)=O)cc2CN2CCN(c3ccccn3)CC2)cc1 [Biaryl 2b] |  | 550
CC(NC(=O)c1ccccc1C(F)(F)F)c1nnc(SCCOc2ccc(F)cc2)n1C (stereo not given) [Triazole 1a] | 5500 | 90
CC(NC(=O)c1ccccc1Cl)c1nnc(SCCOc2ccc(F)cc2)n1C (stereo not given) [Triazole 1b] | > 12500 | 1130
CC(NC(=O)c1ccccc1C(F)(F)F)c1nnc(SCc2ccc(F)cc2)n1C (stereo not given) [Triazole 1c] | 10400 | 150
Cc1ccccc1OCCSc1nnc(C(C)NC(=O)c2ccccc2C(F)(F)F)n1C (stereo not given) [Triazole 1d] | 2820 | 140
CC(NC(=O)c1ccccc1C(F)(F)F)c1nnc(SCCOc2ccc(F)cc2)n1Cc1ccc(F)cc1 (stereo not given) [Triazole 1e] | 690 | 50
CC(NC(=O)c1c(F)cccc1F)c1nnc(SCCOc2ccc(F)cc2)n1C (stereo not given) [Triazole 1f] | 14000 | 1090
